The values that follow come from ChEMBL document CHEMBL4385660, “5-Chloro-2-thiophenyl-1,2,3-triazolylmethyldihydroquinolines as dual inhibitors of Mycobacterium tuberculosis and influenza virus: Synthesis and evaluation” (Bioorg Med Chem Lett, 2019).

The subject of data set [1] is Mycobacterium tuberculosis. The experiment in a line: Antimycobacterial against Mycobacterium tuberculosis. Format: functional.
For data set [2], the system named is Mycobacterium tuberculosis. Briefly: Antimycobacterial against Mycobacterium tuberculosis H37Rv incubated for 7 days by MABA assay. To be noted: 168 h. The format is functional. Background: Alamar Blue is a resazurin reagent that responds to reducing activity.
In another data set the test system is Influenza A virus. The experiment in a line: Antiviral activity against Influenza A virus (A/Puerto Rico/8/1934(H1N1)) infected in MDCK cells assessed as reduction in virus titer using cells pre-treated with compound followed by virus infection for 24 hrs by hemagglutination test. The format is functional, organism-based.
Data set [3] in a line: Cytotoxicity in MDCK cells assessed as reduction in cell viability incubated for 48 hrs by MTT assay. The format is cell-based, Canis lupus familiaris. Particulars: dog.
Data set [4] can be described thus: Selectivity index, ratio of CC50 for cytotoxicity in MDCK cells to IC50 for antiviral activity against Influenza A virus (A/Puerto Rico/8/1934(H1N1)) infected in MDCK cells. Format: toxicity, cell-based. To be noted: dog, read-out: Ratio CC50/IC50.

In general, MIC refers to the lowest concentration that inhibits growth of the organism. By IC50 is commonly meant the midpoint of a concentration-inhibition curve. One may read the CC50 as the concentration giving 50% cytotoxicity.

Converted amounts (≈) assume the structure as drawn.

As to `CN(C)CCc1ccc(-c2cc3cc(Br)ccc3nc2OCc2cccc3ccccc23)cc1`, the minimal inhibitory concentration (MIC) in data set [1] is 0.43 µg/mL (≈ 0.841 µM).
In data set [2], `Fc1ccc(-c2cn(CC3=C(Cl)c4ccc(-c5cccs5)nc4CC3)nn2)cc1` displayed an MIC of 12.5 µg/mL (≈ 29.6 µM). For the same compound, in the data set on Influenza A virus, the IC50 was found to be 80 µg/mL (≈ 189 µM). Further, in data set [3], the CC50 at 48 h stood at 100 µg/mL (≈ 236 µM). Moreover, the selectivity ratio in data set [4] was 1.
The corresponding values for `O=C1c2ccccc2C(=O)N1Cc1cn(CC2=C(Cl)c3ccc(-c4cccs4)nc3CC2)nn1` are 25 µg/mL (≈ 51.2 µM), 200 µg/mL (≈ 410 µM), above 300 µg/mL and 2.
The like results for `ClC1=C(Cn2cc(C3CC3)nn2)CCc2nc(-c3cccs3)ccc21` were, in that order, 6.25 µg/mL (≈ 16.9 µM), above 300 µg/mL, above 300 µg/mL and 1.
The like results for `FC(F)(F)c1ccccc1-c1cn(CC2=C(Cl)c3ccc(-c4cccs4)nc3CC2)nn1` were, in that order, 12.5 µg/mL (≈ 26.4 µM), 160 µg/mL (≈ 338 µM), above 300 µg/mL and 2.
Turning to `Fc1ccc(-c2cn(CC3=C(Cl)c4ccc(-c5cccs5)nc4CC3)nn2)c(F)c1`, the MIC in data set [2] was 25 µg/mL (≈ 56.7 µM). Also, the IC50 in the data set on Influenza A virus was 165 µg/mL (≈ 374 µM). For the same compound, the 50% cytotoxic concentration (CC50) at 48 h in data set [3] was found to be 188 µg/mL (≈ 426 µM). The selectivity ratio in data set [4] amounted to 1.
The like results for `FC(F)(F)c1cc(-c2cn(CC3=C(Cl)c4ccc(-c5cccs5)nc4CC3)nn2)cc(C(F)(F)F)c1` were, in that order, 25 µg/mL (≈ 46.2 µM), above 30 µg/mL, 35 µg/mL (≈ 64.7 µM) and 1.
The like results for `CC(C)(C)c1ccc(-c2cn(CC3=C(Cl)c4ccc(-c5cccs5)nc4CC3)nn2)cc1` were, in that order, 3.12 µg/mL (≈ 6.77 µM), 64 µg/mL (≈ 139 µM), 172 µg/mL (≈ 373 µM) and 3.
The like results for `CC(C)(C)c1nn(-c2cc(Cl)cc(Cl)c2OCc2cn(CC3=C(Cl)c4ccc(-c5cccs5)nc4CC3)nn2)c(=O)o1` were, in that order, 25 µg/mL (≈ 38.8 µM), above 300 µg/mL, above 300 µg/mL and 1.
As to `CCCCCc1cn(CC2=C(Cl)c3ccc(-c4cccs4)nc3CC2)nn1`, the lowest concentration to inhibit growth in data set [2] (MIC) was 6.25 µg/mL (≈ 15.7 µM). The half-inhibitory concentration (IC50) with Influenza A virus came out at 17 µg/mL (≈ 42.6 µM). The CC50 at 48 h in data set [3] worked out at 50 µg/mL (≈ 125 µM). The selectivity ratio in data set [4] stood at 3.
The like results for `ClC1=C(Cn2cc(-c3ccsc3)nn2)CCc2nc(-c3cccs3)ccc21` were, in that order, 25 µg/mL (≈ 60.8 µM), 195 µg/mL (≈ 475 µM), above 300 µg/mL and 15.
The corresponding values for `O=[N+]([O-])c1ccc(-c2cn(CC3=C(Cl)c4ccc(-c5cccs5)nc4CC3)nn2)cc1` are 12.5 µg/mL (≈ 27.8 µM), above 30 µg/mL, 40 µg/mL (≈ 88.9 µM) and 1.
In data set [1], `CN(C)Cc1ccc(-c2cc3cc(Br)ccc3nc2OCc2ccncc2)cc1` gave an MIC of 0.43 µg/mL (≈ 0.959 µM).
Compound `ClC1=C(Cn2cc(-c3ccc(Cl)c(Cl)c3)nn2)CCc2nc(-c3cccs3)ccc21` came in with an MIC in data set [2] of 25 µg/mL (≈ 52.8 µM). Also, the IC50 with Influenza A virus is 26 µg/mL (≈ 54.9 µM). Moreover, in data set [3], the CC50 at 48 h is above 300 µg/mL. Also, the selectivity ratio in data set [4] was found to be 12.
The corresponding values for `ClC1=C(Cn2cc(-c3cc4ccccc4c4ccccc34)nn2)CCc2nc(-c3cccs3)ccc21` are 25 µg/mL (≈ 49.5 µM), above 300 µg/mL, above 300 µg/mL and 1.
The like results for `COc1ccc(-c2cn(CC3=C(Cl)c4ccc(-c5cccs5)nc4CC3)nn2)cc1` were, in that order, 25 µg/mL (≈ 57.5 µM), 160 µg/mL (≈ 368 µM), above 300 µg/mL and 2.
The corresponding values for `FC(F)(F)Oc1ccc(-c2cn(CC3=C(Cl)c4ccc(-c5cccs5)nc4CC3)nn2)cc1` are 25 µg/mL (≈ 51.1 µM), 65 µg/mL (≈ 133 µM), above 300 µg/mL and 5.
As to `O=C(O)c1cn(C2CC2)c2cc(N3CCNCC3)c(F)cc2c1=O` [CIPROFLOXACIN], in data set [2], 1.56 µg/mL (≈ 4.71 µM) was the least that counted as inhibitory (MIC).
On the same count and under the same terms, under `CC[C@@H](CO)NCCN[C@@H](CC)CO` [ETHAMBUTOL] stands 3.13 µg/mL (≈ 15.3 µM).
On the same count and under the same terms, next, `NNC(=O)c1ccncc1` [ISONIAZID]: 0.1 µg/mL (≈ 0.729 µM).
`CCC(CC)O[C@@H]1C=C(C(=O)O)C[C@H](N)[C@H]1NC(C)=O` [OSELTAMIVIR CARBOXYLATE]: in the data set on Influenza A virus, the IC50 is 0.06 µg/mL (≈ 0.211 µM). Further, the CC50 at 48 h in data set [3] was above 30 µg/mL. Also, the selectivity ratio in data set [4] is above 500.
With `CO[C@H]1/C=C/O[C@@]2(C)Oc3c(C)c(O)c4c(O)c(c(/C=N/N5CCN(C)CC5)c(O)c4c3C2=O)NC(=O)/C(C)=C\C=C\[C@H](C)[C@H](O)[C@@H](C)[C@@H](O)[C@@H](C)[C@H](OC(C)=O)[C@@H]1C` [RIFAMPIN], 0.2 µg/mL (≈ 0.243 µM) was the least that counted as inhibitory in data set [2] (MIC).
Regarding `CC(N)C12CC3CC(CC(C3)C1)C2` (configuration not stated) [RIMANTADINE], the IC50 in the data set with Influenza A virus stood at 10 µg/mL (≈ 55.8 µM). Besides, in data set [3], the CC50 at 48 h was found to be 62 µg/mL (≈ 346 µM). The selectivity ratio in data set [4] was 6.
